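Tested at 5 concentrations; 48 h exposure; 96-well plates; endpoints linearly interpolated, else capped at highest concentration. Here, GI50 denotes the concentration required for 50% inhibition of growth.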 The source made the active and inactive calls. Cut-off read from the data, not from the text of the source: active = GI50 up to about 1.1 µM and inactive = higher.
Key:
Assay in all cases: growth of human tumour cells (NCI), 48 h
[1] = system: BT-549
[2] = system: CAKI-1
[3] = system: CCRF-CEM
[4] = system: COLO 205
[5] = system: EKVX
[6] = system: HCC 2998
[7] = system: HL-60
[8] = system: LOX IMVI
[9] = system: MDA-MB-231
[10] = system: MDA-MB-435
[11] = system: MOLT-4
[12] = system: NCI-H23
[13] = system: OVCAR-3
[14] = system: OVCAR-4
[15] = system: PC-3
[16] = system: RPMI-8226
[17] = system: SF-295
[18] = system: T47D
[19] = system: TK-10
[20] = system: UO-31

Row | SMILES | GI50 [1] | GI50 [2] | GI50 [3] | GI50 [4] | GI50 [5] | GI50 [6] | GI50 [7] | GI50 [8] | GI50 [9] | GI50 [10] | GI50 [11] | GI50 [12] | GI50 [13] | GI50 [14] | GI50 [15] | GI50 [16] | GI50 [17] | GI50 [18] | GI50 [19] | GI50 [20]
1 | Fc1ccc(C(OCCN2CCC3CCC(C2)N3CCCc2ccccc2)c2ccc(F)cc2)cc1 (stereo not given) | 8.89 µM (inactive) | 4.86 µM (inactive) | 3.01 µM (inactive) | 1.37 µM (inactive) | 3.82 µM (inactive) | 2.08 µM (inactive) | 2.12 µM (inactive) | 3.83 µM (inactive) | 3.87 µM (inactive) | 2.61 µM (inactive) | 2.58 µM (inactive) | 4.1 µM (inactive) | 3.55 µM (inactive) | 5.28 µM (inactive) | 2.98 µM (inactive) | 2.48 µM (inactive) | 2.77 µM (inactive) | 2.16 µM (inactive) | 4.43 µM (inactive) | 5.56 µM (inactive)
2 | CCOC(=O)c1c(C)c(C)n2c1NC(=O)C2 | 50.9 µM (inactive) | > 59.4 µM (inactive) | > 100 µM (inactive) | > 73.6 µM (inactive) | > 60.5 µM (inactive) | 97.1 µM (inactive) | > 100 µM (inactive) | > 68.7 µM (inactive) | 39 µM (inactive) | > 100 µM (inactive) | > 100 µM (inactive) | > 43 µM (inactive) | > 64.4 µM (inactive) | > 100 µM (inactive) | 36.8 µM (inactive) | > 48 µM (inactive) | > 80 µM (inactive) | 21.1 µM (inactive) | > 55.8 µM (inactive) | > 64.3 µM (inactive)
3 | CC(C)(C)CC(N)=O | > 100 µM (inactive) | > 100 µM (inactive) | > 100 µM (inactive) | > 100 µM (inactive) | > 100 µM (inactive) | > 100 µM (inactive) | > 100 µM (inactive) | > 100 µM (inactive) | > 100 µM (inactive) | > 100 µM (inactive) | > 10 µM (inactive) | > 100 µM (inactive) | > 100 µM (inactive) | > 100 µM (inactive) | > 100 µM (inactive) | > 10 µM (inactive) | > 100 µM (inactive) | > 100 µM (inactive) | > 100 µM (inactive) | > 100 µM (inactive)
4 | Cc1nn(-c2cc(Cl)ccc2[N+](=O)[O-])c(C)c1Cl | 42.5 µM (inactive) | 83.4 µM (inactive) | 37.5 µM (inactive) | > 100 µM (inactive) | 76 µM (inactive) | 38.6 µM (inactive) | 91.8 µM (inactive) | > 100 µM (inactive) | 48 µM (inactive) | > 100 µM (inactive) | 13.6 µM (inactive) | > 100 µM (inactive) | > 100 µM (inactive) | > 100 µM (inactive) | 51.2 µM (inactive) | 87.7 µM (inactive) | > 100 µM (inactive) | 38.2 µM (inactive) | > 100 µM (inactive) | 20.8 µM (inactive)
5 | Nc1cc2c3c(cccc3c1)C(=O)N(c1ccc(OCCN3CCCCC3)cc1)C2=O | 19.7 µM (inactive) | 17.8 µM (inactive) | 21.2 µM (inactive) | 13.4 µM (inactive) | 20.4 µM (inactive) | 19.9 µM (inactive) | 4.89 µM (inactive) | 14 µM (inactive) | 14.2 µM (inactive) | 24.7 µM (inactive) | 12.1 µM (inactive) | 16.1 µM (inactive) | 16.7 µM (inactive) | 17.1 µM (inactive) | 17.4 µM (inactive) | 18.3 µM (inactive) | 16.9 µM (inactive) | 20.4 µM (inactive) | 16.5 µM (inactive) | 9.73 µM (inactive)
6 | CC1=CN(c2ccccc2)S2=C1c1sc3c(c1N2c1ccc(Br)cc1)CCCC3 (stereo not given) | > 100 µM (inactive) | > 100 µM (inactive) | > 100 µM (inactive) | > 100 µM (inactive) | > 100 µM (inactive) | > 100 µM (inactive) | > 100 µM (inactive) | 97.1 µM (inactive) | > 100 µM (inactive) | > 100 µM (inactive) | > 100 µM (inactive) | > 100 µM (inactive) | > 100 µM (inactive) | > 100 µM (inactive) | > 100 µM (inactive) | > 100 µM (inactive) | > 100 µM (inactive) | 91.2 µM (inactive) | > 100 µM (inactive) | > 100 µM (inactive)
7 | COc1cc2c3c4c1OCc1c5c(cc(c1-4)CC3[N+](C)(C)CC2)OCO5 (stereo not given) | 2.83 µM (inactive) | > 100 µM (inactive) | > 100 µM (inactive) | > 100 µM (inactive) | > 100 µM (inactive) | > 100 µM (inactive) | > 100 µM (inactive) | > 100 µM (inactive) | > 100 µM (inactive) | > 100 µM (inactive) | > 100 µM (inactive) | 54.8 µM (inactive) | > 89.9 µM (inactive) | > 100 µM (inactive) | > 100 µM (inactive) | > 100 µM (inactive) | 6.05 µM (inactive) | > 100 µM (inactive) | > 100 µM (inactive) | > 100 µM (inactive)
8 | C=C1N(S(=O)(=O)c2ccc(C)cc2)C(=O)OCC12CCCC2 | > 100 µM (inactive) | 94.4 µM (inactive) | 65.5 µM (inactive) | 72.8 µM (inactive) | 55 µM (inactive) | > 100 µM (inactive) | 40.3 µM (inactive) | > 100 µM (inactive) | > 100 µM (inactive) | > 100 µM (inactive) | 77.4 µM (inactive) | 59.3 µM (inactive) | 52.4 µM (inactive) | 72.6 µM (inactive) | 34.6 µM (inactive) | > 100 µM (inactive) | > 100 µM (inactive) | 27.2 µM (inactive) | > 100 µM (inactive) | 84.3 µM (inactive)
9 | C=C1C(=O)O[C@H]2[C@@H]3O[C@@](C)(CC/C=C(\C)CCC[C@@H]2C)[C@H](O)C[C@@H]13 | 2.79 µM (inactive) | 1.42 µM (inactive) | 10.2 µM (inactive) | 2.42 µM (inactive) | 22.9 µM (inactive) | 5.02 µM (inactive) | 2.34 µM (inactive) | 2.86 µM (inactive) | 5.3 µM (inactive) | 3.06 µM (inactive) | 3.08 µM (inactive) | 1.61 µM (inactive) | 2.59 µM (inactive) | 7.18 µM (inactive) | 8.49 µM (inactive) | 2.25 µM (inactive) | 13.9 µM (inactive) | 3.58 µM (inactive) | 4.81 µM (inactive) | 2.87 µM (inactive)
10 | COC1CC(CC2CCC(C)C(C(C)C(=O)O)O2)OC2(OC(C)(C3CCC(C)(C4OC(C5OC(O)(CO)C(C)CC5C)CC4C)O3)CC2C)C1C (stereo not given) | 0.3 µM (active) | 0.906 µM (active) | 0.0228 µM (active) | 0.116 µM (active) | 2.15 µM (inactive) | 0.186 µM (active) | 0.0363 µM (active) | 1.28 µM (inactive) | 1.53 µM (inactive) | 1.75 µM (inactive) | 0.347 µM (active) | 0.295 µM (active) | 0.0406 µM (active) | 6.56 µM (inactive) | 0.552 µM (active) | 0.167 µM (active) | 1.15 µM (inactive) | 0.284 µM (active) | 5.36 µM (inactive) | 1.79 µM (inactive)
11 | Oc1ccccc1/C=N/c1ccc(Oc2ccc(Cl)cc2)c(Cl)c1 | 15.8 µM (inactive) | 23.2 µM (inactive) | 12.4 µM (inactive) | 21.8 µM (inactive) | 21.3 µM (inactive) | 18.5 µM (inactive) | 17.9 µM (inactive) | 15.7 µM (inactive) | 16.1 µM (inactive) | 28.3 µM (inactive) | 30.1 µM (inactive) | 18.6 µM (inactive) | 15 µM (inactive) | 22.4 µM (inactive) | 20.9 µM (inactive) | 21.5 µM (inactive) | 18.7 µM (inactive) | 5.97 µM (inactive) | 39.5 µM (inactive) | 11.1 µM (inactive)
